Experimental data from the supplement of paper PMC10307832.

Assays:
Experiment in all cases: relative viability (nuclei count vs DMSO), 5 days (fraction); higher = more cells survive
[1] = compound: C1CNCCC1C2=CC(=NN2)C3=CC=NC=C3 + Cc1nc(Nc2ncc(C(=O)Nc3c(C)cccc3Cl)s2)cc(N2CCN(CCO)CC2)n1 [Dasatinib] (partner 0.075 µM)
Method in brief: (§1)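 Cells from lung cancer lines were seeded into 1536-well plates and, one day later, dosed by pin tool. Treatments were either a single drug or a fixed dose of an anchor drug with five library-drug doses (not always all listed) in √10 steps. After 5 days, nuclei were stained in a one-step fixation (final 0.05% Triton X-100, 1% formaldehyde, 1 ug/ml Hoechst) and counted on 4× images, and relative viability is the treated-to-vehicle nuclei ratio, as the median of duplicate plates.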

[2] = compound: C[C@@H](N)c1ccc(C(=O)Nc2ccnc3[nH]ccc23)cc1 + COc1cccc2cc(-c3nc([C@H]4CC[C@H](C(=O)O)CC4)n4ncnc(N)c34)[nH]c12 [OSI-027] (partner 0.5 µM)
Method in brief: as §1

[3] = compound: C[C@@H](N)c1ccc(C(=O)Nc2ccnc3[nH]ccc23)cc1 + NC(=O)Nc1cc(-c2cccc(F)c2)sc1C(=O)N[C@H]1CCCNC1 [AZD7762] (partner 0.2 µM)
Method in brief: as §1

[4] = compound: C1CNCCC1C2=CC(=NN2)C3=CC=NC=C3 + CC(=O)c1c(C)c2cnc(Nc3ccc(N4CCNCC4)cn3)nc2n(C2CCCC2)c1=O [Palbociclib] (partner 0.5 µM)
Method in brief: as §1

Cell Line | relative viability ([1]; first compound 0.08 µM) | relative viability ([1]; first compound 0.8 µM) | relative viability ([1]; first compound 2.53 µM) | relative viability ([1]; first compound 8 µM) | relative viability ([2]; first compound 0.04 µM) | relative viability ([2]; first compound 0.1265 µM) | relative viability ([2]; first compound 0.4 µM) | relative viability ([2]; first compound 1.265 µM) | relative viability ([2]; first compound 4 µM) | relative viability ([3]; first compound 0.04 µM) | relative viability ([3]; first compound 0.1265 µM) | relative viability ([3]; first compound 0.4 µM) | relative viability ([3]; first compound 1.265 µM) | relative viability ([3]; first compound 4 µM) | relative viability ([4]; first compound 0.08 µM) | relative viability ([4]; first compound 0.8 µM) | relative viability ([4]; first compound 2.53 µM) | relative viability ([4]; first compound 8 µM)
NCI-H358 | 0.118 | 0.16 | 0.149 | 0.143 | 0.816 | 1.07 | 0.855 | 0.794 | 0.701 | 0.605 | 0.47 | 0.485 | 0.478 | 0.472 | 0.14 | 0.126 | 0.143 | 0.136
NCI-H441 | 0.465 | 0.673 | 0.797 | 0.576 | 0.631 | 0.807 | 0.62 | – | 0.701 | 1.29 | 0.841 | 1.49 | 1.21 | 1.13 | 0.227 | 0.222 | 0.251 | 0.22
NCI-H460 | 0.387 | 0.454 | 0.537 | 0.529 | 0.748 | 0.602 | 0.746 | 0.633 | 0.897 | 0.66 | 0.656 | 0.844 | 0.873 | 0.913 | 0.105 | 0.179 | 0.315 | 0.303
NCI-H522 | 0.841 | 0.869 | 0.896 | 0.967 | 0.657 | 0.67 | 0.78 | 0.764 | 0.737 | 0.833 | 0.759 | 0.979 | 0.971 | 0.813 | 0.949 | 1.1 | 0.945 | 1.02
NCI-H647 | 0.176 | 0.169 | 0.187 | 0.161 | 0.597 | 0.611 | 0.586 | 0.574 | 0.501 | 0.397 | 0.423 | 0.517 | 0.392 | 0.439 | 0.354 | 0.387 | 0.49 | 0.458
NCI-H650 | 0.468 | 0.45 | 0.5 | 0.428 | – | 0.508 | 0.503 | 0.488 | 0.421 | – | 1.09 | 0.992 | – | 0.886 | 0.334 | 0.352 | 0.4 | 0.406
NCI-H727 | 0.489 | 0.5 | 0.33 | 0.328 | 0.832 | 0.68 | 0.719 | 0.676 | 0.852 | 1.04 | 0.801 | 0.788 | 0.996 | 0.833 | 0.627 | 0.685 | 0.66 | 0.646
NCI-H838 | 0.308 | 0.295 | 0.277 | 0.3 | 0.395 | 0.45 | 0.413 | 0.339 | 0.253 | 0.848 | 0.957 | 0.936 | 0.852 | 0.752 | 0.225 | 0.194 | 0.249 | 0.247
NCI-H1355 | 0.651 | 0.718 | 0.798 | 0.695 | 0.459 | 0.415 | 0.432 | 0.343 | 0.379 | 0.761 | 0.819 | 0.901 | 0.91 | 0.871 | 0.387 | 0.324 | 0.421 | 0.38
NCI-H1395 | 0.399 | 0.345 | 0.381 | 0.471 | 0.637 | 0.739 | 0.685 | 0.389 | 0.588 | 0.396 | 0.391 | 0.395 | – | 0.39 | 0.652 | 0.587 | 0.644 | 0.613
NCI-H1437 | 0.464 | 0.381 | 0.406 | 0.45 | 0.947 | 0.838 | 0.853 | 1 | 0.919 | 1.12 | 1.13 | 1.14 | 1.13 | 1.04 | 0.356 | 0.335 | 0.352 | 0.368
NCI-H1651 | 0.381 | 0.404 | 0.348 | 0.486 | 0.901 | 0.817 | 0.888 | 1.05 | 0.802 | 0.484 | 0.493 | 0.574 | 0.737 | 0.675 | 0.456 | 0.493 | 0.521 | 0.525
NCI-H1666 | 0.718 | 0.941 | 0.821 | 0.783 | 0.917 | 0.979 | 0.935 | 1.14 | 1.06 | 0.824 | 0.953 | 1.13 | 1.12 | 0.98 | 0.657 | 0.662 | 0.667 | 0.669
NCI-H1734 | 0.424 | 0.533 | 0.527 | 0.529 | 0.627 | 0.611 | 0.549 | 0.315 | 0.563 | 0.461 | 0.526 | 0.575 | 0.414 | 0.57 | 0.303 | 0.34 | 0.309 | 0.345
NCI-H1755 | 0.483 | – | 0.474 | 0.399 | 0.606 | 0.815 | 0.758 | 0.638 | 0.587 | 0.408 | 0.46 | 0.451 | 0.362 | 0.397 | 0.437 | 0.442 | 0.462 | 0.365
NCI-H1792 | 0.774 | 0.836 | 0.781 | 0.854 | 0.796 | 0.77 | 0.736 | 0.869 | 0.65 | 0.564 | 0.534 | 0.69 | 0.72 | 0.578 | 0.636 | 0.702 | 0.718 | 0.588
